Read-outs that look alike come from different tables or passages of the source. Blank lines part the entries; values can stand above or below the compound they belong to.
How the values were obtained:
PIM2 = PIM2 (Homo sapiens, UniProt Q9P1W9); test: PIM2 kinase inhibition; assay type: biochemical
From the text: Table 1 Best DYRK1A inhibitors. | column: PIM2 IC50

PIM3 = PIM3 (Homo sapiens, UniProt Q86V86); test: PIM3 kinase inhibition; assay type: biochemical
From the text: Table 1 Best DYRK1A inhibitors. | column: PIM3 IC50

DYRK1A = DYRK1A (Homo sapiens, UniProt Q13627); test: DYRK1A kinase inhibition; assay type: biochemical
[1] = design: method as in PMID 36986543; details: mouse, plasma, cited from earlier work
PIM1 = PIM1 (Homo sapiens, UniProt P11309); test: PIM1 kinase inhibition; assay type: biochemical
Chain of PIM1 (P11309 whole entry, species assumed): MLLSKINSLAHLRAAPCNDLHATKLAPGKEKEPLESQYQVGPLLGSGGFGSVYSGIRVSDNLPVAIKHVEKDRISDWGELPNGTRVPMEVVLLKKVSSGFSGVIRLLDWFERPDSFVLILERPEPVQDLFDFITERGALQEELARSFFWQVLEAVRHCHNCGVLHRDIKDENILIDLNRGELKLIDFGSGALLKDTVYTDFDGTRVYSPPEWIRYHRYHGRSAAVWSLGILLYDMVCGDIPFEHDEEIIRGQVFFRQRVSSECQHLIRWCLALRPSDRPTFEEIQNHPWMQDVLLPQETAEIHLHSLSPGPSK

[2] = test system: bleomycin-induced pulmonary fibrosis; test: Preventive bleomycin-induced IPF model (treatment from Day 0); assay type: in vivo, C57BL/6 mice; details: for body weight: Day 14 to 21 vs BLM model group, ABI compounds 60 mg/kg QD intranasal, pirfenidone 100 mg/kg oral thrice daily; for alveolitis and PF degrees (H&E and Masson staining): relative to bleomycin group; for hydroxyproline content in lung tissues: 21 days
From the text: Consequently, we opted for intranasal delivery in our first IPF animal model, employing a validated BLM mouse model. […] The experiment considered the day of bleomycin injection as Day 0. […] The experiment was completed after 21 days.
In the preventive model, male C57BL/6 mice, aged 8–10 weeks, were used to simulate the early intervention scenario where treatment begins immediately following the induction of lung injury. […] On day 0, pulmonary fibrosis was induced by administering a single intratracheal infusion of bleomycin at a dose of 3 U/kg body weight, dissolved in 50 μL of sterile saline. Treatment with the test compounds commenced immediately after bleomycin administration and continued daily for 21 days. Body weight, survival rate, and clinical signs were monitored throughout the study.
At the end of the study period, the mice were sacrificed, and their lungs were harvested for histological and biochemical analyses. Lung tissues were fixed in 10% formalin and embedded in paraffin for histological examination using hematoxylin and eosin (H&E) staining to assess tissue morphology, and Masson’s trichrome staining to evaluate collagen deposition. Additionally, lung hydroxyproline content, a marker of collagen accumulation, was quantified using a colorimetric assay. Inflammatory cell infiltration was assessed by counting lymphocytes and neutrophils in bronchoalveolar lavage fluid (BALF).

[3] = Pharmacokinetics and lung-tissue distribution after single IV, IN or PO dose; assay type: in vivo, C57BL/6 mice
Procedure: Plasma concentrations were measured using LC-MS/MS, and PK parameters were calculated with WinNonlin. […] The formulation is based on the solubilizer and penetration enhancer (2-hydroxypropyl)-β-cyclodextrin (HP-β-CD), PEG-400, and water.
They were given a commercial mice chow and water ad libitum. The experiments started after acclimation for at least 1 week. Dosing solutions were made fresh. Fasted mice were administered the test drug by oral (PO), intranasal (IN), and intravenous (IV) routes. […] […] […] Blood was collected into K2EDTA microtubes, kept on ice all the time and centrifuged within 30 min of collection. Blood samples in EDTA vacuum tubes were centrifuged at 4 °C at 15,000× g for 4 min; ~250 µL of plasma was collected into polyethylene tubes containing 50 µL of the ascorbic acid (AA)/TCEP stabilizing solution (20 mM AA and 13 mM TCEP in 50 mM K2HPO4 buffer. The pH of the solution was adjusted to 6.5 using 2 M NaOH). After collection, the plasma samples were immediately snap-frozen in isopropanol/carbon-dioxide dry ice and stored at −80 °C until analysis.
Test catechin was extracted from the above-collected plasma through 3 successive additions of 350 µL of acetonitrile. The plasma and solvent mixture were vortex-mixed for 2 min then snap-frozen with isopropanol/carbon-dioxide dry ice and the extraction solvent was removed. The solvent fractions were pooled into a polyethylene tube kept on ice. The combined fractions were evaporated under a gentle stream of nitrogen at ambient temperature. The residue obtained after evaporation was reconstituted in 200 µL of 75 mM citric acid/25 mM ammonium acetate: acetonitrile (75:25, by vol), vortexed vigorously for 5 min, and 20 µL of the resulting solution was injected into the HPLC column. Lung tissue was collected and treated immediately to avoid product degradation. Within 5 min of extraction, about ~0.4 g of the tissue was homogenized with 1 mL of ice-cold 0.4 M sodium phosphate buffer containing 6 mg of ascorbic acid and 0.5 mg of Na2EDTA (final pH of 6.5). After centrifugation at 4 °C at 15,000× g for 4 min, the supernatant was collected into polyethylene tubes containing 50 µL of the AA/TCEP stabilizing solution (20 mM AA and 13 mM TCEP in 50 mM K2HPO4 buffer. The pH of the solution was adjusted to 6.5 using 2 M NaOH), immediately snap-frozen in isopropanol/carbon-dioxide dry ice and stored at −80 °C until analysis. Extraction was performed as described above for plasma.

[4] = test system: bleomycin-induced pulmonary fibrosis; test: Therapeutic bleomycin-induced IPF model (treatment from Day 7); assay type: in vivo, C57BL/6 mice
From the text: In this study, drug treatment commenced 7 days post-induction of pulmonary fibrosis using BLM, employing a therapeutic model.
Pulmonary fibrosis was induced by a single intratracheal infusion of bleomycin at a dose of 3 U/kg body weight. Seven days post-bleomycin administration, when fibrosis was established, treatment with the test compounds commenced and continued daily for an additional 21 days.
Throughout the treatment period, body weight, survival rate, and clinical signs were monitored. At the study’s conclusion, mice were sacrificed, and their lungs were harvested for comprehensive histological and biochemical analyses. Lung tissues were processed for H&E and Masson’s trichrome staining to evaluate fibrosis and collagen deposition. Lung hydroxyproline content was measured to quantify collagen accumulation. Inflammatory cell infiltration in BALF was assessed by counting lymphocytes and neutrophils.

[5] = vs BLM group, 60 mg/kg QD intranasal
[6] = C57BL/6, inhaled or intranasal, mouse, IN (60 mg/kg), lung
[7] = intranasal 50 mg/kg QD, from day 7 post-BLM
[8] = oral 100 mg/kg QD, from day 7 post-BLM
[9] = tissues from Group 4, vs BLM group
[10] = vs BLM group, 60 mg/kg QD intranasal, p < 0.05
[11] = C57BL/6, mouse, IV (10 mg/kg), plasma
[12] = oral 100 mg/kg once daily, from day 7 post-BLM

Chain of PIM2 (Q9P1W9 whole entry, species assumed): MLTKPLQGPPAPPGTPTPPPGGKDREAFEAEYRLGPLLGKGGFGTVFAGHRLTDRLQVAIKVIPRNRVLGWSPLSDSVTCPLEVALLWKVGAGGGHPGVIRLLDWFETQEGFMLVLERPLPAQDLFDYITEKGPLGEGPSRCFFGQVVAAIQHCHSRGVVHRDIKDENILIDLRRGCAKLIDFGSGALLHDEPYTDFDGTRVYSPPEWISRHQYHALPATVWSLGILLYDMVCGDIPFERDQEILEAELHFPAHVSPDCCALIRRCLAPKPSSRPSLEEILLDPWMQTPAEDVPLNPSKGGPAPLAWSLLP

- IC50 (PIM2): 1080 nM
- IC50 (PIM3): 6000 nM
- IC50 (DYRK1A; read-out: DYRK1A IC50): 28 nM
- IC50 (PIM1): 722 nM
Structure (SMILES): O=C(O[C@@H]1Cc2c(O)cc(O)cc2O[C@H]1c1cc(O)c(O)c(O)c1)c1c(F)c(O)c(O)c(O)c1F [ABI-154]
- Tlast ([1]; PO (100 mg/kg)): 24 h
- body weight [2]: no body weight gain effect
- alveolitis and PF degrees (H&E and Masson staining) ([2]; 60 mg/kg QD intranasal): decrease in the alveolitis and PF degrees
- hydroxyproline content in lung tissues [2, 5]: significantly decreased

Structure (SMILES): COc1cc(C(=O)O[C@@H]2Cc3c(O)cc(O)cc3O[C@H]2c2cc(O)c(O)c(O)c2)c(F)c(O)c1O [ABI-171]
- AUC(0-inf) [3, 6]: 23200 ng·h/mL
- AUC(0-t) [3, 6]: 23100 ng·h/mL
- Tmax [3, 6]: 4 h
- half-life [3, 6]: 3.93 h
- Cmax ([3]; C57BL/6, inhaled or intranasal, mouse, IN (60 mg/kg), lung, read-out: Cmax): 8740 ng/g
- AUC(0-t) ([3]; C57BL/6, mouse, PO (100 mg/kg), lung): 214 ng·h/mL
- Cmax ([3]; C57BL/6, mouse, PO (100 mg/kg), lung, read-out: Cmax): 231 ng/g
- Cmax ([3]; IN route (60 mg/kg), total not unbound drug, read-out: theoretical cellular concentration in the lungs at Cmax): ~17.8 µM
- Tlast ([3]; mouse, IN (60 mg/kg), lung): 24 h
- Tlast ([3]; mouse, PO (100 mg/kg), lung): 24 h
- IC50 (PIM2): 255 nM
- IC50 (PIM3): 813 nM
- BLM-induced lung collagen level ([4]; day 21 of treatment): significant reductions
- BLM-induced lung fibronectin level ([4]; day 21 of treatment): significant reductions
- body weight [4, 7]: good recovery in body weight
- survival [4, 7]: complete survival
- BLM-induced lung injuries, Masson's and H&E scores ([4]; intranasal 10 and 50 mg/kg, oral 100 mg/kg QD): improvements
- body weight [4, 8]: good recovery in body weight
- survival [4, 8]: complete survival
- E-cadherin levels in lung ([4]; oral treatment, tissues from Group 4): significantly elevated
- PIM1 level in lung [4, 9]: significantly reduced
- Smad3 (p-Smad3) levels in lung [4, 9]: significantly reduces
- Snail expression in lung [4, 9]: reduce Snail expression
- αSMA level in lung [4, 9]: downregulating
- IC50 (DYRK1A; read-out: DYRK1A IC50): 73 nM
- Tlast ([1]; IN (60 mg/kg)): 24 h
- CL(IV) ([1]; IV (5 mg/kg)): 60 mL/min/kg
- Vz(IV) ([1]; IV (5 mg/kg)): 17 L/kg
- CL/F (PO) ([1]; PO (100 mg/kg)): 101 mL/min/kg
- F (absolute oral bioavailability, PO/IV) ([1]; PO (100 mg/kg)): 16%
- Tlast ([1]; PO (100 mg/kg)): 24 h
- Vz/F (PO) ([1]; PO (100 mg/kg)): 15.6 L/kg
- IC50 (PIM1): 87 nM
- body weight [2]: significant increase in body weight
- alveolitis and PF degrees (H&E and Masson staining) ([2]; 60 mg/kg QD intranasal): decrease in the alveolitis and PF degrees
- hydroxyproline content in lung tissues [2, 5]: significantly decreased
- lymphocytes (BALF) [2, 10]: significantly reduced
- neutrophils (BALF) [2, 10]: significantly reduced

Structure (SMILES): O=C(O[C@@H]1Cc2c(O)cc(O)cc2O[C@@H]1c1cc(O)c(O)c(O)c1)c1cc(O)c(O)c(O)c1 [EGCG, Epigallocatechin gallate, reference compound]
- bioavailability ([3]; C57BL/6, mouse, lung, po, 100 mg/kg, read-out: F (absolute oral bioavailability, PO/IV)): 2%
- Vd/F ([3]; C57BL/6, mouse, lung, po, 100 mg/kg, read-out: Vz/F (PO)): 2680 L/kg
- AUC(0-inf) [3, 11]: 1830 ng·h/mL
- AUC(0-t) [3, 11]: 1800 ng·h/mL
- half-life [3, 11]: 5.7 h
- Cmax ([3]; C57BL/6, mouse, IV (10 mg/kg), plasma, read-out: Cmax): 4420 ng/mL
- Vd ([3]; C57BL/6, mouse, IV (10 mg/kg), plasma, read-out: Vz(IV)): 45.2 L/kg
- T1/2 ([3]; EGCG column, PO (100 mg/kg), head prints Lung): 5 h
- activity in various assessments [4, 12]: limited to moderate activity
- mortality [4, 12]: 50%
- IC50 (DYRK1A): 235 nM
- IC50 (PIM1): 1360 nM

Structure (SMILES): Cc1ccc(=O)n(-c2ccccc2)c1 [pirfenidone, Pirfenidone, reference compound]
- body weight [2]: significant increase in body weight
